The results in this text go back to patent US8058427B2, “Coumarin compounds and their use for treating cancer” (National Health Research Institutes, priority 2008, dated 2011).

The test concerns Human cervical carcinoma KB cells. The experiment in a line: Growth inhibition assay, KB cells (MTS). In kind it is cell-based. The conditions noted are these: 72 h, read-out: IC50 (concentration causing 50% cell growth inhibition). Here is the method:
Anticancer activities of the compounds of this invention were evaluated using a growth inhibition assay described in Kuo et al., Cancer Res. 2004, 64(13), 4621-4628.
Human cervical carcinoma KB cells were maintained in plastic dishes in DMEM medium supplemented with 10% fetal bovine serum. For in vitro treatment, tumor cells were seeded in […] of culture medium/well in 96-well plates to a final cell density of 6×10^3 cell/mL and incubated in a CO2 incubator at 37° C. for 24 h. The cells were treated with at least five different concentrations of a test compound, and incubated in a CO2 incubator at 37° C. for 72 h. The number of viable cells was estimated using MTS assay and absorbance was measured at 490 nm. For each test compound, dose-response curves were measured with at least five different drug concentrations, and the concentration causing 50% cell growth inhibition (IC50) compared with the control was calculated.

Consider `O=C(c1ccccc1)c1oc2ccc3ccc(=O)oc3c2c1-c1ccccc1` [Compound 2], for which the IC50 is 101 to 999 nM. As for `Cc1cc2ccc3oc(C(=O)c4ccccc4)c(-c4ccccc4)c3c2oc1=O` [Compound 3], the IC50 lay within 101 to 999 nM.

Take `Cc1cc(=O)oc2c1cc(C)c1oc(C(=O)c3ccccc3)c(-c3ccccc3)c12` [Compound 8]: the IC50 was in the range of 1000 to 10000 nM. Turning to `O=Cc1cc(=O)oc2c1ccc1oc(C(=O)c3ccccc3)c(-c3ccccc3)c12` [Compound 10], the IC50 lay within 101 to 999 nM. Then `O=C(c1ccccc1)c1oc2ccc3c(C(F)(F)F)cc(=O)oc3c2c1-c1ccccc1` [Compound 11], with 101 to 999 nM; and `Cc1c(Cc2ccccc2)c(=O)oc2c1ccc1oc(C(=O)c3ccccc3)c(-c3ccccc3)c12` [Compound 19], with 1000 to 10000 nM; and `O=C(c1ccccc1)c1oc2ccc3c4c(c(=O)oc3c2c1-c1ccccc1)CCCC4` [Compound 21], with 1000 to 10000 nM. `O=C(c1ccccc1)c1oc2ccc3c4ccccc4c(=O)oc3c2c1-c1ccccc1` [Compound 22]: the IC50 fell in the range of 1000 to 10000 nM. The figure for `Cc1cc(=O)oc2c1ccc1sc(C(=O)c3ccccc3)c(-c3ccccc3)c12` [Compound 26] is 101 to 999 nM.

Take `Cc1cc(=O)oc2c1ccc1oc(C(=O)c3ccccc3C(F)(F)F)c(-c3ccccc3)c12` [Compound 35]: the IC50 was 1000 to 10000 nM.

As to `Cc1cc(=O)oc2c1ccc1oc(C(=O)c3cccc(C(F)(F)F)c3)c(-c3ccccc3)c12` [Compound 36], the IC50 was in the range of 101 to 999 nM. Consider `Cc1cc(=O)oc2c1ccc1oc(C(=O)c3ccc(C(F)(F)F)cc3)c(-c3ccccc3)c12` [Compound 37], for which the IC50 was 1000 to 10000 nM.

Consider `Cc1cc(=O)oc2c1ccc1oc(C(=O)c3ccc(OC(F)(F)F)cc3)c(-c3ccccc3)c12` [Compound 38], for which the IC50 is 101 to 999 nM. As for `Cc1ccc(C(=O)c2oc3ccc4c(C)cc(=O)oc4c3c2-c2ccccc2)cc1` [Compound 41], the IC50 fell in the range of 101 to 999 nM.

For `Cc1cc(=O)oc2c1ccc1oc(C(=O)c3cccc(C#N)c3)c(-c3ccccc3)c12` [Compound 42], the IC50 lay in the range of 101 to 999 nM.

For the molecule `Cc1cc(=O)oc2c1ccc1oc(C(=O)c3ccc(F)cc3)c(-c3ccccc3)c12` [Compound 46], the IC50 was 101 to 999 nM. Consider `Cc1cc(=O)oc2c1ccc1oc(C(=O)c3ccc(Cl)cc3)c(-c3ccccc3)c12` [Compound 49], for which the IC50 fell in the range of 101 to 999 nM.

As for `Cc1cc(=O)oc2c1ccc1oc(C(=O)c3ccc(Br)cc3)c(-c3ccccc3)c12` [Compound 50], the IC50 fell in the range of 101 to 999 nM. For the molecule `Cc1cc(=O)oc2c1ccc1oc(C(=O)c3ccc([N+](=O)[O-])cc3)c(-c3ccccc3)c12` [Compound 51], the IC50 fell in the range of 101 to 999 nM. Then `Cc1cc(=O)oc2c1ccc1oc(C(=O)c3ccc(-c4ccccc4)cc3)c(-c3ccccc3)c12` [Compound 52], with 1000 to 10000 nM. The figure for `Cc1cc(=O)oc2c1ccc1oc(C(=O)c3ccc(Cl)c(Cl)c3)c(-c3ccccc3)c12` [Compound 58] is 101 to 999 nM; for `Cc1cc(=O)oc2c1ccc1oc(C(=O)c3ccc(F)c(F)c3)c(-c3ccccc3)c12` [Compound 60] it is 101 to 999 nM.

`Cc1cc(=O)oc2c1ccc1oc(C(=O)c3cc(F)ccc3F)c(-c3ccccc3)c12` [Compound 61]: the IC50 lay in the range of 101 to 999 nM. Then `Cc1ccc(C(=O)c2oc3ccc4c(C)cc(=O)oc4c3c2-c2ccccc2)c(C)c1` [Compound 62], with 101 to 999 nM; and `Cc1cc(=O)oc2c1ccc1oc(C(=O)c3cccc([N+](=O)[O-])c3)c(-c3ccccc3)c12` [Compound 66], with 101 to 999 nM. `Cc1cc(=O)oc2c1ccc1oc(C(=O)c3cccc(OCCCCN4CCCCC4)c3)c(-c3ccccc3)c12` [Compound 85]: the IC50 was 101 to 999 nM. On to `Cc1cc(=O)oc2c1ccc1oc(C(=O)c3cccc(OCCCCN(C)C)c3)c(-c3ccccc3)c12` [Compound 88], for which the IC50 lay in the range of 101 to 999 nM. Then `Cc1cc(=O)oc2c1ccc1oc(C(=O)c3cccc(OCCN4CCN(C)CC4)c3)c(-c3ccccc3)c12` [Compound 89], with 101 to 999 nM; and `Cc1cc(=O)oc2c1ccc1oc(C(=O)c3cccc(OCCCN4CCN(C)CC4)c3)c(-c3ccccc3)c12` [Compound 90], with 101 to 999 nM; and `Cc1cc(=O)oc2c1ccc1oc(C(=O)c3cccc(OCCCCN4CCN(C)CC4)c3)c(-c3ccccc3)c12` [Compound 91], with 1000 to 10000 nM.

Regarding `Cc1cc(=O)oc2c1ccc1oc(C(=O)c3ccco3)c(-c3ccccc3)c12` [Compound 92], the IC50 was in the range of 101 to 999 nM. Then `Cc1ccc(C(=O)c2oc3ccc4c(C)cc(=O)oc4c3c2-c2ccccc2)o1` [Compound 94], with 101 to 999 nM; and `Cc1cc(=O)oc2c1ccc1oc(C(=O)c3cc(Cl)sc3Cl)c(-c3ccccc3)c12` [Compound 97], with 1000 to 10000 nM; and `Cc1cc(=O)oc2c1ccc1oc(C(=O)c3ccc(Br)s3)c(-c3ccccc3)c12` [Compound 98], with 101 to 999 nM.

Turning to `Cc1cc(=O)oc2c1ccc1oc(C(=O)c3cccn3C)c(-c3ccccc3)c12` [Compound 102], the IC50 is 1000 to 10000 nM. The figure for `CCOC(=O)c1cc(C(=O)c2oc3ccc4c(C)cc(=O)oc4c3c2-c2ccccc2)on1` [Compound 110] is 1000 to 10000 nM. As for `Cc1cc(=O)oc2c1ccc1oc(C(=O)c3cc(-c4ccc(Cl)cc4)no3)c(-c3ccccc3)c12` [Compound 112], the IC50 fell in the range of 1000 to 10000 nM.

`CC(=O)c1oc2ccc3c(C)cc(=O)oc3c2c1-c1ccccc1` [Compound 119]: the IC50 lay within 1000 to 10000 nM. The figure for `Cc1cc(=O)oc2c1ccc1oc(C(=O)C3CCCCC3)c(-c3ccccc3)c12` [Compound 127] is 1000 to 10000 nM; for `Cc1cc(=O)oc2c1ccc1oc(C(=O)c3ccccc3)c(-c3cccc(F)c3)c12` [Compound 133] it is 101 to 999 nM. The figure for `Cc1cc(=O)oc2c1ccc1oc(C(=O)c3ccccc3)c(-c3ccccc3Cl)c12` [Compound 135] is 101 to 999 nM.

Regarding `Cc1cc(=O)oc2c1ccc1oc(C(=O)c3ccccc3)c(-c3cccc(Cl)c3)c12` [Compound 136], the IC50 was 101 to 999 nM. The figure for `Cc1cc(=O)oc2c1ccc1oc(C(=O)c3ccccc3)c(-c3ccc(Cl)cc3)c12` [Compound 137] is 101 to 999 nM; for `Cc1cc(=O)oc2c1ccc1oc(C(=O)c3ccccc3)c(-c3ccccc3Br)c12` [Compound 138] it is 101 to 999 nM. Turning to `Cc1cc(=O)oc2c1ccc1oc(C(=O)c3ccccc3)cc12` [Compound 153], the IC50 was 101 to 999 nM.

With `Cc1cc(=O)oc2c1ccc1oc(C(=O)c3ccccc3)c(C)c12` [Compound 154], the IC50 is 101 to 999 nM. Regarding `CCCc1c(C(=O)c2ccccc2)oc2ccc3c(C)cc(=O)oc3c12` [Compound 155], the IC50 fell in the range of 101 to 999 nM.

Take `CCCCCc1c(C(=O)c2ccccc2)oc2ccc3c(C)cc(=O)oc3c12` [Compound 156]: the IC50 fell in the range of 1000 to 10000 nM. Consider `CCCCCCc1c(C(=O)c2ccccc2)oc2ccc3c(C)cc(=O)oc3c12` [Compound 157], for which the IC50 was 101 to 999 nM. For `CCCCCCCCCCc1c(C(=O)c2ccccc2)oc2ccc3c(C)cc(=O)oc3c12` [Compound 158], the IC50 fell in the range of 1000 to 10000 nM. Then `Cc1cc(=O)oc2c1ccc1oc(C(=O)c3ccccc3)c(-c3ccco3)c12` [Compound 159], with 101 to 999 nM; and `Cc1cc(=O)oc2c1ccc1oc(C(=O)c3ccccc3)c(/C=C/c3ccccc3)c12` [Compound 161], with 101 to 999 nM.
